Experimental data: US12310946B2, “Pharmaceutical composition for oral administration of edaravone and method of administering same” (MITSUBISHI TANABE PHARMA CORPORATION, priority 2020, dated 2025)

Test: in vitro
Settings: human, Caco-2, pH 7.4
Method: Caco-2 cells were seeded on a 24-well plate, cultured at 37° C. for 21 to 23 days in a CO2 incubator, and then a Caco-2 cell monolayer membrane permeability test was conducted. After checking the membrane resistance value of the cell layer after the culture, the culture medium in the plate was replaced with HBSS (pH 7.4). […] For the control compounds, [^3H]propranolol as a high membrane permeability control and [^14C]mannitol as a low membrane permeability control were used.

Papp A→B at 2 h, 10 μmol/L | SMILES
28.9 ± 1.1 ×10⁻⁶ cm/s | CC(C)NCC(O)COc1cccc2ccccc12 (centres unmarked) [[^3H]Propranolol, [^3H]propranolol]
0.53 ± 0.007 ×10⁻⁶ cm/s | OC[C@@H](O)[C@@H](O)[C@H](O)[C@H](O)CO [[^14C]Mannitol, [^14C]mannitol]
